Measured values: publication PMC12281424, “A Rac-specific competitive inhibitor of guanine nucleotide binding reduces metastasis in triple-negative breast cancer” (Cell Reports Medicine, 2025)

Assays:
Histamine H1 = Histamine H1 (Homo sapiens, UniProt P35367); assay: Safety screen; assay type: binding
Description: (§1) Blood cell counts, kinase profiler, safety screen, bacterial cytotoxicity, Ames, micronucleus assays were performed by the company Eurofins (France). The kinase profiler was performed by the company Eurofins (Discovery, Panlab and Cerep).

[1] = target: Serotonin (5-Hydroxytryptamine) 5-HT1A (Homo sapiens, UniProt P08908); assay: Safety screen; assay type: binding
Description: as §1

Aurora-B(h) = Aurora-B(h) (Homo sapiens, UniProt Q96GD4); assay: Kinase Profiler; assay type: biochemical
Description: as §1

CaMKIß(h) = CaMKIß(h) (Homo sapiens, UniProt Q6P2M8); assay: Kinase Profiler; assay type: biochemical
Description: as §1

CDK2/cyclinA(h) = CDK2/cyclinA(h) (Homo sapiens, UniProt P24941); assay: Kinase Profiler; assay type: biochemical
Description: as §1

CDKL1(h) = CDKL1(h) (Homo sapiens, UniProt Q00532); assay: Kinase Profiler; assay type: biochemical
Description: (§2) The kinase profiler was performed by the company Eurofins (Discovery, Panlab and Cerep).

DYRK3(h) = DYRK3(h) (Homo sapiens, UniProt O43781); assay: Kinase Profiler; assay type: biochemical
Description: as §2

FGFR3(h) = FGFR3(h) (Homo sapiens, UniProt P22607); assay: Kinase Profiler; assay type: biochemical
Description: as §2

IRE1(h) = IRE1(h) (Homo sapiens, UniProt O75460); assay: Kinase Profiler; assay type: biochemical
Description: as §1

LATS2(h) = LATS2(h) (Homo sapiens, UniProt Q9NRM7); assay: Kinase Profiler; assay type: biochemical
Description: as §2

NEK3(h) = NEK3(h) (Homo sapiens, UniProt P51956); assay: Kinase Profiler; assay type: biochemical
Description: as §2

NUAK2(h) = NUAK2(h) (Homo sapiens, UniProt Q9H093); assay: Kinase Profiler; assay type: biochemical
Description: as §2

PKCα(h) = PKCα(h) (Homo sapiens, UniProt P17252); assay: Kinase Profiler; assay type: biochemical
Description: as §2

PRK1(h) = PRK1(h) (Homo sapiens, UniProt Q16512); assay: Kinase Profiler; assay type: biochemical
Description: as §1

SNRK(h) = SNRK(h) (Homo sapiens, UniProt Q9NRH2); assay: Kinase Profiler; assay type: biochemical
Description: as §2

CDC42 = CDC42 (Homo sapiens, UniProt P60953); assay: Surface plasmon resonance; assay type: binding; design: purchased Cytoskeleton CD01; details: A41 0 to 25 μM
Description: SPR immobilization was performed at 25°C. RAC1, RHOA and CDC42 purified proteins (respectively […] and CD01, Cytoskeleton) were diluted to 5 μg/mL in Na^+ acetate buffer (pH 5.0) and injected into sensor chip CM5 (GE Healthcare) in a Biacore T200 (GE Healthcare) that was activated with NHS/EDC buffer. Approximately 5,000 response units of the purified protein were immobilized on the biosensor chip. Biosensor chips were blocked by an injection of 1 mM ethanolamine (pH 8.5). SPR analysis was performed at 25°C in HBSEP running buffer (5% DMSO) with or without EDTA (20 mM). A41 compound was injected over the RAC1, RHOA or CDC42 functionalized surface in concentration range from 0 to 25μM. Association and dissociation phases were monitored during 60s and 300s, respectively.

SNRK(h), sequence (Q9NRH2 whole entry): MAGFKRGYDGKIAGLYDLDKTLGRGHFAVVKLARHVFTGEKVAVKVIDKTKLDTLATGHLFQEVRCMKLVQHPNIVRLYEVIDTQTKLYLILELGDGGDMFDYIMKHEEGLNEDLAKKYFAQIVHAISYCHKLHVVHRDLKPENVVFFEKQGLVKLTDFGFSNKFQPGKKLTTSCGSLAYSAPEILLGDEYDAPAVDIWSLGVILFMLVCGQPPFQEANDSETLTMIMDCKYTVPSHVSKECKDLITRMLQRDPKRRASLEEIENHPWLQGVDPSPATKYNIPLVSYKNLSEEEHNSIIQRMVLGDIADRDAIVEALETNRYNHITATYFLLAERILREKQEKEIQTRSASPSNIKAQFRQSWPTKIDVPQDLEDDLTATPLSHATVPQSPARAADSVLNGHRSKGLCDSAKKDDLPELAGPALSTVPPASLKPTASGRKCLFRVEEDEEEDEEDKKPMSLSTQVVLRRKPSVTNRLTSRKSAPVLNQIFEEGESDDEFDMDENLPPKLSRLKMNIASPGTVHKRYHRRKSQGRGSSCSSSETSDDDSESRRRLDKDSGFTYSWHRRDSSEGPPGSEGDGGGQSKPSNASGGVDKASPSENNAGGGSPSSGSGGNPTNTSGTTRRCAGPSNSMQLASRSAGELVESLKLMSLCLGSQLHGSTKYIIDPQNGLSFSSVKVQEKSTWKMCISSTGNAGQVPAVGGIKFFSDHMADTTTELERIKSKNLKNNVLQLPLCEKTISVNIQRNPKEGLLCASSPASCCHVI
Serotonin (5-Hydroxytryptamine) 5-HT1A, sequence (P08908 whole entry): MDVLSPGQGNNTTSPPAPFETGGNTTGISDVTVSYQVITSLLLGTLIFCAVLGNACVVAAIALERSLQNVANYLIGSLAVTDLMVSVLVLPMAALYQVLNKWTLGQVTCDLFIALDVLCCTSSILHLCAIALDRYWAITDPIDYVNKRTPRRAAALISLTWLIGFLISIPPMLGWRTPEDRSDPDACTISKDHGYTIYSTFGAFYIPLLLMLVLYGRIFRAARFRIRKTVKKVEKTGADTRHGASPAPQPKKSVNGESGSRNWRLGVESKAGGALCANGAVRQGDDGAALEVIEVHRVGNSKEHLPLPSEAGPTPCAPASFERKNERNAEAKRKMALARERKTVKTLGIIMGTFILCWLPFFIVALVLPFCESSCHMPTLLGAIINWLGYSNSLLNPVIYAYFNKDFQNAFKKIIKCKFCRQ
NUAK2(h), sequence (Q9H093 whole entry): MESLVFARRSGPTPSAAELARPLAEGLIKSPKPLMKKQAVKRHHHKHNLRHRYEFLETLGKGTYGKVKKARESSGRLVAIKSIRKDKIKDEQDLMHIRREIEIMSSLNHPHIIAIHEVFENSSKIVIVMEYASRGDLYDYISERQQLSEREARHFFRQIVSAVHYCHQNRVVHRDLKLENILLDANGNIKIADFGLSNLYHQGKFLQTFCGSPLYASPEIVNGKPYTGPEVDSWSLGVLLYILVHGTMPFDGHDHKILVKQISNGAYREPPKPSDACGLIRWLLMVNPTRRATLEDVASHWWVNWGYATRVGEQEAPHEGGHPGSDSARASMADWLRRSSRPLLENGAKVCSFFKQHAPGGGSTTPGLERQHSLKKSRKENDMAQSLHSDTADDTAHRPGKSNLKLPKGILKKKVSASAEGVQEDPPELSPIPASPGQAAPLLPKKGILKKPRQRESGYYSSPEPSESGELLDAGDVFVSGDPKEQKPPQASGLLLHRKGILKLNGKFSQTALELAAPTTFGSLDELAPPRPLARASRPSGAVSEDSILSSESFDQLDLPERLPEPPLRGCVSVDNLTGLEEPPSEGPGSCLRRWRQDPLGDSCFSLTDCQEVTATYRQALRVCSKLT
PRK1(h), sequence (Q16512 whole entry): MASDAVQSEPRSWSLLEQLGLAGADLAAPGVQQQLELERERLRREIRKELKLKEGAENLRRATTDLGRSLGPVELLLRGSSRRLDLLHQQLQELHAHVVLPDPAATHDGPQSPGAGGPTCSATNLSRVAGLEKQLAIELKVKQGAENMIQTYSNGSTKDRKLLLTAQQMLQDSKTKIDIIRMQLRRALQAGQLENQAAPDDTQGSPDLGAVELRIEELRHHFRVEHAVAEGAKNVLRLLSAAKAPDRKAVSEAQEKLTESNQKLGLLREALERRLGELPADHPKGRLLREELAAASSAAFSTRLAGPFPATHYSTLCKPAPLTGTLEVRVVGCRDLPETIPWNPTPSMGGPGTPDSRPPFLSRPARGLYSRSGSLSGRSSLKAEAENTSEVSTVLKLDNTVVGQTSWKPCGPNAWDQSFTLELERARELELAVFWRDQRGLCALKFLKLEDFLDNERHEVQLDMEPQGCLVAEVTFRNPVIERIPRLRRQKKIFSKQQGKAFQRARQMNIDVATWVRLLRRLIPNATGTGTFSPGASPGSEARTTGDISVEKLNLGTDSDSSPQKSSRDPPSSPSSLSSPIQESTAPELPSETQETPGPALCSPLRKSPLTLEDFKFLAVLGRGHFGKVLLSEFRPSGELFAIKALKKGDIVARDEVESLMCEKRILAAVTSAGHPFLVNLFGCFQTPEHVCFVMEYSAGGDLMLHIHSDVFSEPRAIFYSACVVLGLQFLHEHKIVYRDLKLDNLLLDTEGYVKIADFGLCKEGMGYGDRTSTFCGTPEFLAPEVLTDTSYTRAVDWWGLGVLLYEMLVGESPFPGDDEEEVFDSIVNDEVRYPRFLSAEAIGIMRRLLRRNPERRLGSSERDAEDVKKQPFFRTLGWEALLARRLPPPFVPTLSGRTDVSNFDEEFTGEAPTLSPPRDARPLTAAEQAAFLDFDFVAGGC
LATS2(h), sequence (Q9NRM7 whole entry): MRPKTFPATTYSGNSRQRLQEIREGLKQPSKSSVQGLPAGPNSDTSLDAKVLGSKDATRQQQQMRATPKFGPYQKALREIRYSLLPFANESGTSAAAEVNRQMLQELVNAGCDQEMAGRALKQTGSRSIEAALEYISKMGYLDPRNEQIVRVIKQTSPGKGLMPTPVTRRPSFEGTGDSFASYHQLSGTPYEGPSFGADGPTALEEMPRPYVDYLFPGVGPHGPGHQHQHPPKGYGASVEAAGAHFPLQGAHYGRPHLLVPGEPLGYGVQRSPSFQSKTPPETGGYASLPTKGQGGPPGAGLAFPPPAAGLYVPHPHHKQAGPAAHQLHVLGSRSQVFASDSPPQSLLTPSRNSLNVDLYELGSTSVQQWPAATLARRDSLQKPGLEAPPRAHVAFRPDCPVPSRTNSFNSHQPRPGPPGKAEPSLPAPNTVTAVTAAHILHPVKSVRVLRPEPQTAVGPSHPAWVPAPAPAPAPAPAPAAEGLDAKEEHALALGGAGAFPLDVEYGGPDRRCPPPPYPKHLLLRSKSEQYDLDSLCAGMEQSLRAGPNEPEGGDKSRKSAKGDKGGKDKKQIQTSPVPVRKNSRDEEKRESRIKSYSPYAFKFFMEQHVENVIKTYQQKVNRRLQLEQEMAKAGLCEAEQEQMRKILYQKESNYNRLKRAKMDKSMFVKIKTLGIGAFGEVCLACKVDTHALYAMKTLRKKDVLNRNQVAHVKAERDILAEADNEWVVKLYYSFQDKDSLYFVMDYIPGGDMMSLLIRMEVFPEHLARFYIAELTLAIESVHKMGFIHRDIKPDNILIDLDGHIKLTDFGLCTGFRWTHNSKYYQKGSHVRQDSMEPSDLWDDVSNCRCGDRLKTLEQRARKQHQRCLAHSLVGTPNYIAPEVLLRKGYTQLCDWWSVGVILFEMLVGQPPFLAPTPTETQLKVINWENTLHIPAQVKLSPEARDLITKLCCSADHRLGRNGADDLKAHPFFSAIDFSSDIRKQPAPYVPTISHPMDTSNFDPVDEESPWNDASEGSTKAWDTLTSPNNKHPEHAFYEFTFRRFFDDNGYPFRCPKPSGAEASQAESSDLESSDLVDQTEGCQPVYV
NEK3(h), sequence (P51956 whole entry): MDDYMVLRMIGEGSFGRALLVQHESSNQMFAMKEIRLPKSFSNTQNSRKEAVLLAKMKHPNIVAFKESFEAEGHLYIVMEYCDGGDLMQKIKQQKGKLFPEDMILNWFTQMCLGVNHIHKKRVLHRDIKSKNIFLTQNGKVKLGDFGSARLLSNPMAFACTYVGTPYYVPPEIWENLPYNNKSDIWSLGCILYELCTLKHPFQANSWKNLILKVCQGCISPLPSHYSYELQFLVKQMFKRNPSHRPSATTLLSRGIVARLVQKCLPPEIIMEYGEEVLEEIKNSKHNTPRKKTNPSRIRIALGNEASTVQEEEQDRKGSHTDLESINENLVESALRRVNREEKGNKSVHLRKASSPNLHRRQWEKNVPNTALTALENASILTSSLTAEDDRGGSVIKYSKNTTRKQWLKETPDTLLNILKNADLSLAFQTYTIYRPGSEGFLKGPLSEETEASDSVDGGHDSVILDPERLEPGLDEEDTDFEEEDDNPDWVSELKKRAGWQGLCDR

## COc1ccc(OC)c(NS(=O)(=O)c2ccc(NC(=O)CCSc3ccc(C)cc3)cc2)c1 [Compound A41]
Histamine H1
  % inh.: 41%
[1]
  % inh.: 6%
Aurora-B(h)
  Activity(%): 86%
CaMKIß(h)
  Activity(%): 114%
CDK2/cyclinA(h)
  Activity(%): 97%
CDKL1(h)
  Activity(%): 105%
DYRK3(h)
  Activity(%): 112%
FGFR3(h)
  Activity(%): 89%
IRE1(h)
  Activity(%): 101%
LATS2(h)
  Activity(%): 110%
NEK3(h)
  Activity(%): 107%
NUAK2(h)
  Activity(%): 110%
PKCα(h)
  Activity(%): 105%
PRK1(h)
  Activity(%): 93%
SNRK(h)
  Activity(%): 123%
CDC42
  binding: No binding was measured
